Measurements taken from PubChem BioAssay (NCI).
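Briefly, cells in 96-well plates were exposed to five compound concentrations for 48 h, and endpoints were estimated by linear interpolation. GI50 = concentration required for 50% inhibition of growth. At the TGI there is no net growth.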

Experiments:
Experiment in all cases: NCI tumour cell line growth inhibition, 48 h
SNB-19 CNS = tested on: SNB-19 CNS
DU-145 prostate = tested on: DU-145 prostate
PC-3 prostate = tested on: PC-3 prostate
RPMI-8226 leukemia = tested on: RPMI-8226 leukemia
MDA-N = tested on: MDA-N
UO-31 renal = tested on: UO-31 renal
T-47D breast = tested on: T-47D breast
MALME-3M melanoma = tested on: MALME-3M melanoma
SNB-75 CNS = tested on: SNB-75 CNS
MDA-MB-231 breast = tested on: MDA-MB-231 breast

Row | SMILES | TGI (SNB-19 CNS) [µM] | TGI (DU-145 prostate) [µM] | TGI (PC-3 prostate) [µM] | TGI (RPMI-8226 leukemia) [µM] | TGI (MDA-N) [µM] | TGI (UO-31 renal) [µM] | TGI (T-47D breast) [µM] | TGI (MALME-3M melanoma) [µM] | TGI (SNB-75 CNS) [µM] | TGI (MDA-MB-231 breast) [µM] | GI50 (DU-145 prostate) [µM] | GI50 (RPMI-8226 leukemia) [µM] | GI50 (UO-31 renal) [µM] | GI50 (MALME-3M melanoma) [µM] | GI50 (SNB-75 CNS) [µM]
1 | CC(=O)N[C@@H](Cc1ccc(O)cn1)C(=O)NCc1ccc(Cl)cc1 | > 100 | > 100 | > 100 | > 100 | > 100 | > 100 | > 100 | > 100 |  |  |  |  |  |  | 
2 | CC1OC(OC2C(O)CC(OC3C(O)CC(OC4CCC5(C)C(CCC6C5CCC5(C)C(C7=CC(=O)OC7)C(O)CC65O)C4)OC3C)OC2C)CC(O)C1O (stereo not given) | 3.49 | 0.236 | 1.59 | 1.52 | 1.11 | 1.15 | 4.72 | 0.816 | 5.37 |  |  |  |  |  | 
3 | CC(=O)Oc1ccc2cc(Oc3cc(Cl)c(Cl)cc3Cl)c(=O)oc2c1 | 81.2 | > 100 | 33 |  | 30.6 | 25.9 | > 100 | 31.3 | 44.6 | 33.7 |  |  |  |  | 
4 | Nc1nc(Cl)c2ncn(CCCC(c3ccccc3)P(=O)(O)O)c2n1 (stereo not given) | > 100 |  |  | > 100 |  | > 100 |  | > 100 | > 100 |  |  |  |  |  | 
5 | C[C@]12CC[C@H]3[C@@H](CC=C4C[C@@H](O)CC[C@@]43C)[C@@H]1C/C(=C\c1cccnc1)[C@@H]2O | 61.5 | 67.4 | > 100 | > 100 | > 100 | > 100 |  | > 100 |  | 57.8 |  |  |  |  | 
6 | Nc1nc(SCc2ccccc2Cl)c2ncn(C3OC(CO)C(O)C3O)c2n1 (stereo not given) | > 100 |  |  | > 100 |  | > 100 |  | > 100 | 98.2 |  |  |  |  |  | 
7 | COc1cc2c(c(OC)c1OC)C(=O)c1c(O)cc(C)c(OC)c1C2=O | > 100 | > 100 | > 100 | > 100 | > 100 | > 100 |  | > 100 | > 100 | > 100 |  |  |  |  | 
8 | CC(C)(C)OC(=O)Cn1ncn(NC(=O)Cc2ccccc2)c1=S | > 10 | > 10 | > 10 |  | > 10 | > 10 | > 10 | > 10 | > 10 | > 10 |  |  |  |  | 
9 | CCCCCCCCCCCC1N=C(N)N=C(N)N1c1cccc(Br)c1 (stereo not given) |  | 2.42 |  | 4.21 |  | 13 |  | 3.38 |  |  | 1.16 | 1.68 | 4.89 | 1.77 | 
10 | CCOC(=O)C(O)(CC1=NC(C(=O)OC)(C(=O)OC)C(c2cccc(C=O)c2)O1)C(=O)OCC (stereo not given) | > 100 | > 100 | > 100 | > 100 | > 100 | > 100 | > 100 |  | > 100 |  |  |  |  |  | 
11 | CCOC(=O)C1=C(O)CC(=O)N=C1N1CCCC1 | > 100 | > 100 | > 100 | > 100 | > 100 | > 100 | > 100 | > 100 |  | > 100 |  |  |  |  | 
12 | CC1(C)N=C(C(N)=O)c2[nH]cnc2N1 | > 100 | > 100 | > 100 | > 100 | > 100 |  | > 100 | > 100 | > 100 | > 100 |  |  |  |  | 
13 | C/C(=C\C(=O)Nc1ccc2n[nH]nc2c1)Nc1ccc2n[nH]nc2c1 | > 100 |  |  | > 100 |  | > 100 |  | > 100 | > 100 |  |  |  |  |  | 
14 | COC(=O)CN1CCN(c2cccc3c2CCCC3)CC1 | > 100 |  | > 100 | 85.8 | > 100 | > 100 | > 100 | > 100 | > 100 | > 100 |  |  |  |  | 
15 | CCOc1ccc2nc(NC(=O)C(=O)C3C(=O)C(CC4C(=O)c5ccccc5C4=O)C(=O)CC3(C)C)sc2c1 (stereo not given) | > 100 | > 100 | > 100 |  | > 100 | > 100 |  |  | > 100 | > 100 |  |  |  |  | 
16 | CN(C)C(=O)C(F)(F)C(c1ccccc1Br)C1C(=O)N(C)C(=O)N(C)C1=O (stereo not given) | > 100 | > 100 | > 100 | > 100 |  | > 100 | > 100 | > 100 | > 100 | > 100 |  |  |  |  | 
17 | [CH3][Sn]([CH3])([CH3])[S]C(=S)N1CCOCC1 |  |  |  | 2.22 |  | > 25.1 |  | 14.8 | > 31.4 |  |  | 0.362 | 6.24 | 3.49 | 3.34
18 | COC(=O)c1ccccc1CC1Cc2c(C)ccc(C)c2C1=O (stereo not given) | > 100 | > 100 | > 100 |  |  | > 100 | 87.2 | 57.5 | > 100 | > 100 |  |  |  |  | 
19 | ClC1=NSSC1(Cl)Cl | > 100 | > 100 | > 100 | 56 | 62.1 | 78 |  | > 100 | > 100 | 71.2 |  |  |  |  | 
20 | C[N+](C)(CCNc1ccc(NCC[N+](C)(C)Cc2ccc([N+](=O)[O-])cc2)c2c1C(=O)c1c(O)ccc(O)c1C2=O)Cc1ccc([N+](=O)[O-])cc1 |  | > 50 | > 50 | > 50 | > 50 | > 50 | > 50 | > 50 | > 50 | > 50 |  |  |  |  | 
21 | CCOc1ccc(C2=NN(CC)C(=O)C(C3C(=O)N(c4ccccc4)N=C3C)C2)cc1 (stereo not given) | > 100 |  |  | > 100 |  | > 100 |  | > 100 |  |  |  |  |  |  | 
22 | Brc1ccc2[nH]c3c(C4=NCCC4)nccc3c2c1 | > 100 |  |  | > 36 |  | 37 |  | 16.1 | > 82 |  |  |  |  |  | 
23 | Cc1sc(/N=C/C2=C(O)CC(C)(C)CC2=O)nc1-c1ccccc1 | > 100 | > 100 | > 100 | > 100 | > 100 | > 100 | > 100 |  | > 100 | > 100 |  |  |  |  | 
24 | NC(Cc1ccccc1)C(=O)OCN1C(=O)C2C3C=CC(C2C1=O)C1C(=O)N(COC(=O)C(N)Cc2ccccc2)C(=O)C31 (stereo not given) | > 100 | > 100 | > 100 | 48 | > 100 | > 100 | > 100 | > 100 |  | > 100 |  |  |  |  | 
25 | CNC(=S)N/N=C/C(C)=N/NC(=S)NC | > 100 |  |  | > 100 |  | > 100 |  | > 100 |  |  |  |  |  |  | 
26 | CSc1c(C(C)=O)c(O)n(-c2ccc(C)cc2)c(=O)c1C#N | > 100 | > 100 | > 100 | > 100 |  | > 100 | > 100 | > 100 | > 100 | > 100 |  |  |  |  | 
